# Measurements from US4304864A, “Long-chain acyl-coenzyme-A synthetase” (Mitsubishi Chemical Industries, Limited, priority 1978, dated 1981).
# Entries after “also recorded” stand apart in the source; their conditions may differ.
# B1: acyl-CoA synthetase from E. coli: prior art enzyme purified from Escherichia coli by D. Samuel et al (protein, UniProt P69451 1-561, looked up)
# Long-chain-fatty-acid--CoA …: MKKVWLNRYPADVPTEINPDRYQSLVDMFEQSVARYADQPAFVNMGEVMTFRKLEERSRAFAAYLQQGLGLKKGDRVALMMPNLLQYPVALFGILRAGMIVVNVNPLYTPRELEHQLNDSGASAIVIVSNFAHTLEKVVDKTAVQHVILTRMGDQLSTAKGTVVNFVVKYIKRLVPKYHLPDAISFRSALHNGYRMQYVKPELVPEDLAFLQYTGGTTGVAKGAMLTHRNMLANLEQVNATYGPLLHPGKELVVTALPLYHIFALTINCLLFIELGGQNLLITNPRDIPGLVKELAKYPFTAITGVNTLFNALLNNKEFQQLDFSSLHLSAGGGMPVQQVVAERWVKLTGQYLLEGYGLTECAPLVSVNPYDIDYHSGSIGLPVPSTEAKLVDDDDNEVPPGQPGELCVKGPQVMLGYWQRPDATDEIIKNGWLHTGDIAVMDEEGFLRIVDRKKDMILVSGFNVYPNEIEDVVMQHPGVQEVAAVGVPSGSSGEAVKIFVVKKDPSLTEESLVTFCRRQLTGYKVPKLVEFRDELPKSNVGKILRRELRDEARGKVDNKA
# Assays:
# [1] = test system: acyl-CoA synthetase I; assay: Specificity for acyl acceptors (Vmax and apparent Km); type: biochemical, Candida lipolytica; conditions: for utilization as acyl acceptor: at conc. up to 5 mM; for Km / Vmax: acyl acceptor; for Vmax: CoA designated as 100%
# Experimental: (§1) The sssay of enzyme activity was carried out by the Banis and Tove method. (See Biochemica et Biophysica Acta, Vol. 348, pages 210-220 (1974)). According to this method, the reaction solution contained 20 μmol of Tris-HCl buffer (pH 7.5), 3 μmol of ATP, 2 μmol of MgCl2, 1.0 μmol of dithiothreitol, 0.2 μmol of [U-^14 C] potassium palmitate (0.2 mCi/mmol), 0.32 μmol of surfactant T, 0.2 μmol of CoA and an aliquot of the enzyme solution in a total volume of 0.2 ml. After a 5 minute preincubation, either the CoA or the enzyme solution which had been kept from incorporating in the reaction solution was added to initiate the reaction (at 25° C.). At the end of a 10 minute reaction period, 2.5 ml of isopropanol-n-heptane-1 M sulfuric acid (40:10:1) was added to stop the reaction. The solution was then extracted with heptane to remove any unreacted free fatty acid. After the aqueous layer was washed twice each with 2 ml of heptane containing 8 mg of palmitic acid, the radioactivity of the aqueous layer was measured.
# (§2) The standard reaction solution contained 100 μmol of Tris-HCl buffer (pH 7.4), 5 μmol of dithiothreitol, 1.6 μmol of surfactant T, 7.5 μmol of ATP, 10 μmol of MgCl2, 0.25 μmol of potassium oleate, 1 μmol of CoA, 0.2 μmol of potassium phosphoenolpyruvate, 0.15 μmol of NADH, 20 μg of myokinase, 30 μg of pyruvate kinase, 30 μg of lactate dehydrogenase and a certain amount of acyl-CoA synthetase per ml of the solution. A reaction solution containing all the above components except CoA was preincubated at 25° C. for one minute. The reaction was then initiated by the addition of CoA, and the rate of decrease in optical density at 340 nm which was attributed to decrease in amount of NADH was determined.
# The Vmax values and the apparent Km values were as follows: […]
# [2] = test system: acyl-CoA synthetase; assay: Substrate specificity of acyl-CoA synthetase (fatty acids); type: biochemical, Candida lipolytica; conditions: for Activity (μmol acyl-CoA/min.): fatty acid concentration 0.25 mM
# Experimental: as §1, §2
# [3] = test system: acyl-CoA synthetase I; assay: Specificity for nucleoside-5'-triphosphate; type: biochemical, Candida lipolytica; conditions: for effectiveness as nucleoside-5'-triphosphate: 7.5 mM and 15 mM
# Experimental: as §2
# (ii) Specificity for nucleoside-5'-triphosphate: Only ATP and αATP were effective. At concentrations of 7.5 mM and 15 mM, the activities measured with αATP were 78% and 61%, respectively, of those measured with ATP.
# [4] = test system: acyl-CoA synthetase; assay: Substrate specificity of acyl-CoA synthetase (fatty acids); type: biochemical, Candida lipolytica; conditions: fatty acid concentration 0.125 mM
# [5] = test system: acyl-CoA synthetase; assay: Activator and inhibitor of the enzyme; type: biochemical, Candida lipolytica
# [6] = most purified form, prior art; cited from earlier work
molecule,measurement,setting,value
O[C@H](CS)[C@H](O)CS (racemic) [Dithiothreitol],utilization as acyl acceptor,[1],Not utilized
CC(C)(COP(=O)(O)OP(=O)(O)OC[C@H]1O[C@@H](n2cnc3c2ncn2ccnc32)[C@H](O)[C@@H]1OP(=O)(O)O)[C@@H](O)C(=O)NCCC(=O)NCCS [1:^6 N-Etheno-CoA],Km,[1],500 µM
same,Vmax,[1],40%
CC(C)(COP(=O)(O)O)[C@@H](O)C(=O)NCCC(=O)NCCS [4'-Phosphopantetheine],Km,[1],3300 µM
same,Vmax,[1],63%
O=C(O)CCCCCCCCCCCCCCCO [16-Hydroxypalmitic acid],effectiveness as substrate of the enzyme,[2],essentially ineffective
same,Activity (μmol acyl-CoA/min.),[2],1.5 μmol acyl-CoA/min.
Nc1ncnc2c1ncn2[C@@H]1O[C@H](COP(=O)(O)OP(=O)(O)OP(=O)(O)O)[C@@H](O)[C@H]1O [ATP],effectiveness as nucleoside-5'-triphosphate,[3],effective
CCCCCCCCCCCCCCCCCCCC(=O)O [Arachidic acid],Activity (μmol acyl-CoA/min.),[2],0.6 μmol acyl-CoA/min.
CCCCC/C=C\C/C=C\C/C=C\C/C=C\CCCC(=O)O [Arachidonic acid],Activity (μmol acyl-CoA/min.),[4],1.3 μmol acyl-CoA/min.
Nc1ccn([C@@H]2O[C@H](COP(=O)(O)OP(=O)(O)OP(=O)(O)O)[C@@H](O)[C@H]2O)c(=O)n1 [CTP],effectiveness as nucleoside-5'-triphosphate,[3],essentially ineffective
CC(C)(COP(=O)(O)OP(=O)(O)OC[C@H]1O[C@@H](n2cnc3c(N)ncnc32)[C@H](O)[C@@H]1OP(=O)(O)O)[C@@H](O)C(=O)NCCC(=O)NCCS [CoA],Km,[1],42 µM
same,Vmax,[1],100%
[Cu+2] [Cu^++],activation or inhibition of the enzyme,[5],inhibitor
same,inhibition of the enzyme action,[5]; concentration of 15 mM,completely inhibits
CC(C)(COP(=O)(O)OP(=O)(O)OC[C@H]1O[C@@H](n2cnc3c(N)ncnc32)[C@H](O)[C@@H]1O)[C@@H](O)C(=O)NCCC(=O)NCCS [Dephospho-CoA],Km,[1],110 µM
same,Vmax,[1],70%
O=C(O)CN(CCN(CC(=O)O)CC(=O)O)CC(=O)O [EDTA],activation or inhibition of the enzyme,[5],inhibitor; also recorded: inhibits
Nc1nc2c(ncn2[C@@H]2O[C@H](COP(=O)(O)OP(=O)(O)OP(=O)(O)O)[C@@H](O)[C@H]2O)c(=O)[nH]1 [GTP],effectiveness as nucleoside-5'-triphosphate,[3],essentially ineffective
N[C@@H](CCC(=O)N[C@@H](CS)C(=O)NCC(=O)O)C(=O)O [Glutathione],utilization as acyl acceptor,[1],Not utilized
CCCCCCCCCCCCCCCCC(=O)O [Heptadecanoic acid],Activity (μmol acyl-CoA/min.),[4],22.3 μmol acyl-CoA/min.
O=C(O)CCCCCCCCCCCCCCC(=O)O [Hexadecanedioic acid],effectiveness as substrate of the enzyme,[2],essentially ineffective
same,Activity (μmol acyl-CoA/min.),[2],0.6 μmol acyl-CoA/min.
N[C@@H](CS)C(=O)O [L-Cysteine],utilization as acyl acceptor,[1],Not utilized
CCCCCCCCCCCC(=O)O [Lauric acid],Activity (μmol acyl-CoA/min.),[2],1.0 μmol acyl-CoA/min.
CCCCC/C=C\C/C=C\CCCCCCCC(=O)O [Linoleic acid],Activity (μmol acyl-CoA/min.),[2],19.7 μmol acyl-CoA/min.
CC/C=C\C/C=C\C/C=C\CCCCCCCC(=O)O [Linolenic acid],Activity (μmol acyl-CoA/min.),[2],22.0 μmol acyl-CoA/min.
[Mg+2] [Mg^++],activation or inhibition of the enzyme,[5],activator; also recorded: activated
CCCCCCCCCCCCCC(=O)O [Myristic acid],Activity (μmol acyl-CoA/min.),[2],20.8 μmol acyl-CoA/min.
CC(=O)NCCS [N-Acetylcysteamine],utilization as acyl acceptor,[1],Not utilized
CCCCCCCCCCCCCCCCCCC(=O)O [Nonadecanoic acid],Activity (μmol acyl-CoA/min.),[2],1.7 μmol acyl-CoA/min.
CCCCCCCC/C=C\CCCCCCCC(=O)O [Oleic acid],Activity (μmol acyl-CoA/min.),[2],23.8 μmol acyl-CoA/min.
CCCCCCCCCCCCCCCC(=O)O [Palmitic acid],Activity (μmol acyl-CoA/min.),[2],20.4 μmol acyl-CoA/min.
CCCCCC/C=C\CCCCCCCC(=O)O [Palmitoleic acid],Activity (μmol acyl-CoA/min.),[4],19.8 μmol acyl-CoA/min.
CC(C)(CO)[C@@H](O)C(=O)NCCC(=O)NCCS [Pantetheine],Km,[1],2500 µM
same,Vmax,[1],57%
CCCCCCCCCCCCCCC(=O)O [Pentadecanoic acid],Activity (μmol acyl-CoA/min.),[2],18.0 μmol acyl-CoA/min.
CCCCCCCCCCCCC(=O)O [Tridecanoic acid],Activity (μmol acyl-CoA/min.),[4],1.3 μmol acyl-CoA/min.
O=c1ccn([C@@H]2O[C@H](COP(=O)(O)OP(=O)(O)OP(=O)(O)O)[C@@H](O)[C@H]2O)c(=O)[nH]1 [UTP],effectiveness as nucleoside-5'-triphosphate,[3],essentially ineffective
"Nc1ncnc2c1ncn2[C@@H]1O[C@H](COP(=O)(O)OP(=O)(O)CP(=O)(O)O)[C@@H](O)[C@H]1O [adenylyl (β,γ-methylene)diphosphonate]",effectiveness as nucleoside-5'-triphosphate,[3],essentially ineffective
Nc1ncnc2c1ncn2[C@@H]1O[C@H](COP(=O)(O)OP(=O)(O)NP(=O)(O)O)[C@@H](O)[C@H]1O [adenylyl imidodiphosphonate],effectiveness as nucleoside-5'-triphosphate,[3],essentially ineffective
αATP,effectiveness as nucleoside-5'-triphosphate,[3],effective
same,activity relative to that measured with ATP,[3]; nucleotide 7.5 mM,78%
same,activity relative to that measured with ATP,[3]; nucleotide 15 mM,61%
αTTP,effectiveness as nucleoside-5'-triphosphate,[3],essentially ineffective
B1,specific activity,[6],106 mU/mg protein
